The values that follow come from patent publication US10548870B2, “Method for treating multiple sclerosis” (OLATEC THERAPEUTICS LLC, priority 2017, dated 2020).

What all share (type): in vivo, C57Bl/6 mice
The test system of experiment [1] is experimental allergic encephalomyelitis (EAE) mice. Briefly: Prophylactic intraperitoneal treatment of dapansutrile in EAE mice. As to conditions: 60 mg/kg i.p. twice daily, Day 0 to Day 21. On the procedure:
(§1) Active immunization was done in female adult (8 weeks old) C57Bl/6 mice. Briefly, mice were subcutaneously injected with […] of myelin oligodendrocyte glycoprotein (MOG)35-55 peptide ([…], SEQ ID NO: 1) emulsified in complete Freund's Adjuvant (Sigma Aldrich) supplemented with 4 mg of micobacterioum tuberculosis H37RA (DIFCO Laboratories). On day 0 and 2 post-immunization, mice were also injected intraperitoneally (i.p.) with 500 ng of pertussis toxin (List Biological Laboratories).
Starting on day 0 (day of immunization), mice were injected intraperitoneally twice daily with dapansutrile (OLT1177™, 60 mg/kg) or saline until the end of the study (Day 21). Each treated group had 10 mice.
Animals were monitored daily for signs of EAE and the scoring system is as follows: 0=no clinical symptoms, normal walking; 0.5=partial paralyzed tail, 1=fully paralyzed tail; 2=mild hind-limb weakness, quick righting reflex; 3=severe hind-limb weakness, slow righting reflex, unable to bear weight; 3.5=severe hind-limb weakness and partial paralysis of hind limb; 4=complete paralysis of at least one hind limbs; 4.5=complete paralysis of one or both one hind limbs and trunk weakness; 5=complete paralysis of one or both hind limbs, forelimb weakness or paralysis; 6=mouse is found dead by EAE. […]

The test system is the same in experiment [2]. As to the kind of experiment: Prophylactic oral treatment (dapansutrile-enriched diet) in EAE mice. As to the method: as §1
(§2) Animals were monitored daily for signs of EAE and the scoring system is as follows: 0=no clinical symptoms, normal walking; 0.5=partial paralyzed tail, 1=fully paralyzed tail; 2=mild hind-limb weakness, quick righting reflex; 3=severe hind-limb weakness, slow righting reflex, unable to bear weight; 3.5=severe hind-limb weakness and partial paralysis of hind limb; 4=complete paralysis of at least one hind limbs; 4.5=complete paralysis of one or both one hind limbs and trunk weakness; 5=complete paralysis of one or both hind limbs, forelimb weakness or paralysis; 6=mouse is found dead by EAE.
(§3) EAE mice were euthanized at either day 21 or 23 post-immunization with an overdose of pentobarbital sodium (Dolethal) and transcardially perfused with 4% paraformaldehyde (PFA) in 0.1M phosphate buffer (PB). Lumbar segments of spinal cords were harvested, post-fixed in 4% PFA for 2 hours and cryoprotected in 30% sucrose in 0.1M at 4° C. for at least 48 hours. Spinal cords were embedded in TissueTek OCT (Sakura), cut in transversal sections (15 μm-thick) with a cryostat (Leica) between L3 and L5 segments and serially picked up on gelatine-coated glass slides. Samples were stored at −20° C.
(§4) Sections were stained with Luxol Fast Blue (LFB) (Sigma Aldrich). Briefly, after a graded dehydration, sections were placed in 1 mg/mL of LFB solution in 96% EtOH and 0.05% acetic acid overnight at 37° C. and protected from light. Then, slides were washed with 96% EtOH, rehydrated in distilled water and placed in a 0.5 mg/mL Li2CO3 solution for 3-5 minutes at room temperature. Finally, sections were washed in distilled water, dehydrated again in 100% EtOH and mounted in DPX (Sigma Aldrich). To assess the demyelinated area in the spinal cord, 6 random images per mice were captured at 10× magnification with an Olympus BX51 and the attached Olympus DP73 Camera. The total demyelinated area within the spinal cord was measured with Image J image analysis software.
(§5) EAE induction, functional assessment, and histological analysis were the same as those described in Example 2.
Starting on day 0 (day of immunization), EAE-mice were fed either a dapansutrile-enriched diet or a standard diet. […]

Experiment [3] shares this test system. As to the kind of experiment: Oral gavage treatment with dapansutrile in EAE mice starting at disease onset. As to the method: as §1, §2, §3, §4, §5
60 mg/kg of dapansutrile was solubilized with distilled water and administered daily by oral gavage at 60 mg/kg animal weight to mice twice per day. […] Control mice were administered distilled water at the same days. […]

The mark [4] stands for this setting: diet with 3.75 g dapansutrile per kg food, Day 0 to Day 23, vs standard diet (FIG. 2B).
The mark [5] stands for this setting: 60 mg/kg oral gavage twice daily from disease onset, vs vehicle (FIG. 3B).

Take `CS(=O)(=O)CCC#N` [dapansutrile, 3-methanesulfonylpropionitrile]: in experiment [1] (vs saline (FIG. 1B)), the “demyelination in the lumbar spinal cord (LFB staining)” value was “reduced the demyelination in the spinal cord”. Besides, in experiment [1] (vs saline, significant from day 11 to day 21 (FIG. 1A)), the EAE clinical score result is “significant lower disease scores”. Further, the “daily EAE clinical scores after disease onset” value in experiment [2] (diet with 3.75 g dapansutrile per kg food (about 50 mg/kg/day), Day 0 to Day 23, vs standard diet (FIG. 2A)) is “lower daily EAE clinical scores”. Besides, in experiment [2] (setting [4]), the “cumulative EAE score” value was “lower cumulative EAE scores” and the “maximum EAE score” value is listed as “lower maximum EAE scores”. In addition, the “reduction of demyelination in the spinal cord” value in experiment [2] (diet with 3.75 g dapansutrile per kg food, 23 days after immunization, vs standard food (FIG. 2C)) is listed as “about 2 fold”. Also, in experiment [3] (60 mg/kg oral gavage twice daily from disease onset (FIG. 3A)), the “reduction in the EAE score compared to vehicle” value is recorded as “about 1 point”. In experiment [3] (setting [5]), the “cumulative clinical EAE score” value is on record as “significantly reduced” and the “maximum clinical EAE score” value was “significantly reduced”. Further, the “demyelination in LFB stained spinal cords” value in experiment [3] (60 mg/kg oral gavage twice daily from disease onset, vs vehicle (FIG. 3C)) is reported as “protection against demyelination”.
